Reference: patent publication US6323001A, “Increasing the trehalose content of organisms by transforming them with combinations of the structural genes for trehalose synthase” (BTG International Ltd., priority 1994, dated 2001)
Like-named read-outs stand apart in the source and are kept apart here.

Target: T1, Tre6Pase activity of intact trehalose synthase (Saccharomyces cerevisiae, UniProt P31688)
T1 construct: Intact trehalose synthase was purified from commercial baker's yeast; made in house; host or cells: commercial baker's yeast (native enzyme purified, not recombinant)
T1 sequence (P31688 1-896): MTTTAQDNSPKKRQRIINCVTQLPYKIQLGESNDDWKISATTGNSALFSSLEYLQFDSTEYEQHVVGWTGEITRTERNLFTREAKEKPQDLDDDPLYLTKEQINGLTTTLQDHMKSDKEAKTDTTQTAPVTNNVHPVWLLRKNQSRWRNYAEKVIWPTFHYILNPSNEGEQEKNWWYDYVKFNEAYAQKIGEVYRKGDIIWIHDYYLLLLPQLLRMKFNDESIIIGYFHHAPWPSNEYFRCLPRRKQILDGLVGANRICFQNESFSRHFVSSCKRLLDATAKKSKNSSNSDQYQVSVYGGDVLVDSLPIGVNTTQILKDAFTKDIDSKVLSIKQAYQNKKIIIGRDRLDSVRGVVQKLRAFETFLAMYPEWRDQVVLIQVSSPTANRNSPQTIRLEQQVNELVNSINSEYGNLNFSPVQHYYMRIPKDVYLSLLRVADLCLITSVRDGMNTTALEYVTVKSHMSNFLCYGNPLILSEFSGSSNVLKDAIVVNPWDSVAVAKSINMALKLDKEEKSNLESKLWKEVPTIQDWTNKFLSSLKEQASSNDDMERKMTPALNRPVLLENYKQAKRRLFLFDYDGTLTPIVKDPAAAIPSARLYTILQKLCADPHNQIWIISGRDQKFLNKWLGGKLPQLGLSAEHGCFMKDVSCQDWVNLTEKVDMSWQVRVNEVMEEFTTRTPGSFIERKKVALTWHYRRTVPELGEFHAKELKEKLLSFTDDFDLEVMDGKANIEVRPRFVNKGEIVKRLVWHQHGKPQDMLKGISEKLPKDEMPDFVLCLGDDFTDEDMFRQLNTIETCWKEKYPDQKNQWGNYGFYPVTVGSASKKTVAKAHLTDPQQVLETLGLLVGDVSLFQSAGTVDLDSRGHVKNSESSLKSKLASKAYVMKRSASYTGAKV
T1 sequence (Q00764 1-495 partner): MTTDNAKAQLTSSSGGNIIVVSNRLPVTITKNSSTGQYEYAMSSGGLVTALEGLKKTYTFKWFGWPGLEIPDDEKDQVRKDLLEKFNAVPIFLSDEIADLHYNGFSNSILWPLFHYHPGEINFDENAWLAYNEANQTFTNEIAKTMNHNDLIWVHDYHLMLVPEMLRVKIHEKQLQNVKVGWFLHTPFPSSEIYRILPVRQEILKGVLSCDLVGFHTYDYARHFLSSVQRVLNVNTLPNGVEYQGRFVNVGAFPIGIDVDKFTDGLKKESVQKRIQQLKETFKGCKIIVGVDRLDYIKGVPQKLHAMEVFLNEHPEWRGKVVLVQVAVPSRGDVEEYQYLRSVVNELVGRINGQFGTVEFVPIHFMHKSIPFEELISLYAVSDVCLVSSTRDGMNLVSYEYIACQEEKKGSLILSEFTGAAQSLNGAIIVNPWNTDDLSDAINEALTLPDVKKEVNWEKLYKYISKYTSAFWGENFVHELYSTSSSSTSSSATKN
T1 sequence (P38427 1-1098 partner): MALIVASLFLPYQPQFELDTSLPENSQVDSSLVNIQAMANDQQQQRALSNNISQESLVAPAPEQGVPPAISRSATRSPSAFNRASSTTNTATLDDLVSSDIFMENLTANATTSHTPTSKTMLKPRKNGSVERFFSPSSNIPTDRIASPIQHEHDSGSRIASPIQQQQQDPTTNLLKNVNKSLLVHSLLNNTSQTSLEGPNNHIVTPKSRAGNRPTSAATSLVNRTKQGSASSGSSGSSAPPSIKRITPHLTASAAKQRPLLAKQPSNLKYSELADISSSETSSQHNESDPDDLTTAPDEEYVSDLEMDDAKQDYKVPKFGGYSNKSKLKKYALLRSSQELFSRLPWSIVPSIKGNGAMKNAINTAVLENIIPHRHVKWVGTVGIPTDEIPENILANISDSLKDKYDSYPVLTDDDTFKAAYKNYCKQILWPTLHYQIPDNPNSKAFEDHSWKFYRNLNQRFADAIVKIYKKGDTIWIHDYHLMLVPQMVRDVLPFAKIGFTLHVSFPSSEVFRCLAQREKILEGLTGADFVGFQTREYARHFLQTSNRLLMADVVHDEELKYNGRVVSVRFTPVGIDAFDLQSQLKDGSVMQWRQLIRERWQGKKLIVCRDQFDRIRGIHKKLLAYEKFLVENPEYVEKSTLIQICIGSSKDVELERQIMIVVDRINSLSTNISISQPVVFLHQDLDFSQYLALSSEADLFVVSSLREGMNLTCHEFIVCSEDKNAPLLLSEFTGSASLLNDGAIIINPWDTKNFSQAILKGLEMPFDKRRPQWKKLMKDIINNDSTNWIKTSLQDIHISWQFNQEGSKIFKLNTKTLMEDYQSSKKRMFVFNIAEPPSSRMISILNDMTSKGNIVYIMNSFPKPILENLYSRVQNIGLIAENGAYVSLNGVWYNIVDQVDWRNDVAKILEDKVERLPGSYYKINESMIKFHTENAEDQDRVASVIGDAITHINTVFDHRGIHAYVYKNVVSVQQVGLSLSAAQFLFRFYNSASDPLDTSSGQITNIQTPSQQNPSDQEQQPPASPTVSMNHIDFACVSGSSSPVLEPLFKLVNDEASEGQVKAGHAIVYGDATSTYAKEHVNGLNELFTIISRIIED
Assay: Tre6Pase assay of intact trehalose synthase
Assay type: biochemical, baker's yeast
Experimental: With microbial materials, Tre6Pase and Tre6P synthase standard assays and other kinetic measurements were made as described by Londesborough & Vuorio [(1991) loc. cit.] except that the standard Tre6P synthase assay mixture contained 5 mM F6P unless stated otherwise.
In one experiment intact trehalose synthase (0.28 Tre6P synthase units, ≈9.4 μg) was incubated with or without 0.5 μg of trypsin at 30° C. in 250 μl of 13 mM HEPES pH 7.0 containing 1 mM MgCl2, 0.5 mM EDTA, 0.5 mM dithiothreitol, 0.2 M NaCl and 0.5 mM benzamidine. Its Tre6P synthase activity was determined at intervals using standard assay mixtures (containing 5 mM F6P) containing no or 4 mM K phosphate pH 6.8, and samples were prepared for SDS-PAGE analysis immediately before and 48 min after addition of the trypsin.
Intact trehalose synthase was prepared as in Example 1. Kinetic assays were done at 30° C. as described in General Methods and Materials.

| Compound | effect on Tre6Pase activity (in the absence of phosphate, intact enzyme) | inhibition at 5000 µM (read-out: inhibition of Tre6Pase activity, 5 mM F6P, saturating phosphate concentrations, intact enzyme) [%] | inhibition at 5000 µM (read-out: inhibition of Tre6Pase activity, 5 mM F6P, sub-optimal phosphate concentrations, intact enzyme) [%] | EC50 (initial rates, intact enzyme, read-out: half maximal activation of Tre6Pase by phosphate) [µM] |
| --- | --- | --- | --- | --- |
| O=C(CO)[C@@H](O)[C@H](O)[C@H](O)COP(=O)(O)O [Transformant F6P, Fructose 6-phosphate] | did not affect | 10 to 15 | 20 to 30 | – |
| O=P(O)(O)O [phosphate, K phosphate] | – | – | – | 600 |
